Test results published in patent publication US20250179057A1, “MEK IMMUNE ONCOLOGY INHIBITORS AND THERAPEUTIC USES THEREOF” (Immuneering Corporation, priority 2022, published 2025).

Tests used:
CYP2C8 = molecular target: T1, CYP2C8 (Homo sapiens, UniProt P10632); test: in vitro; conditions: pooled liver microsomes, pH 7.4, probe amodiaquine
T1 sequence (P10632 1-490): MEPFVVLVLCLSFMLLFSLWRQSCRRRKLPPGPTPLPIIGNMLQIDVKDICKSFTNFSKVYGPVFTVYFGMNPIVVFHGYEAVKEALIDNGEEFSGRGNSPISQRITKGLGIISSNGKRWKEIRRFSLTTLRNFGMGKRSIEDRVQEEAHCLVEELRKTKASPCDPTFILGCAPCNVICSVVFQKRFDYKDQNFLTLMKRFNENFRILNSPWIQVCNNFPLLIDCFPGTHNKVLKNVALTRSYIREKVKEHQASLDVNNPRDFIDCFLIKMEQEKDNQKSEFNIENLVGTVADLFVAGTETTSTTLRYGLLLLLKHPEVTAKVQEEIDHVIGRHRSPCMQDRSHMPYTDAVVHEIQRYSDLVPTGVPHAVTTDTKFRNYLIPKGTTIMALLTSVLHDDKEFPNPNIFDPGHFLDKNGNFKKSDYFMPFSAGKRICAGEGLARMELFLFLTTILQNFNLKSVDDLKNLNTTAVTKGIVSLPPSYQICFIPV

hERG = hERG (Homo sapiens, UniProt Q12809); test: cell-based
hERG, sequence (Q12809 whole entry): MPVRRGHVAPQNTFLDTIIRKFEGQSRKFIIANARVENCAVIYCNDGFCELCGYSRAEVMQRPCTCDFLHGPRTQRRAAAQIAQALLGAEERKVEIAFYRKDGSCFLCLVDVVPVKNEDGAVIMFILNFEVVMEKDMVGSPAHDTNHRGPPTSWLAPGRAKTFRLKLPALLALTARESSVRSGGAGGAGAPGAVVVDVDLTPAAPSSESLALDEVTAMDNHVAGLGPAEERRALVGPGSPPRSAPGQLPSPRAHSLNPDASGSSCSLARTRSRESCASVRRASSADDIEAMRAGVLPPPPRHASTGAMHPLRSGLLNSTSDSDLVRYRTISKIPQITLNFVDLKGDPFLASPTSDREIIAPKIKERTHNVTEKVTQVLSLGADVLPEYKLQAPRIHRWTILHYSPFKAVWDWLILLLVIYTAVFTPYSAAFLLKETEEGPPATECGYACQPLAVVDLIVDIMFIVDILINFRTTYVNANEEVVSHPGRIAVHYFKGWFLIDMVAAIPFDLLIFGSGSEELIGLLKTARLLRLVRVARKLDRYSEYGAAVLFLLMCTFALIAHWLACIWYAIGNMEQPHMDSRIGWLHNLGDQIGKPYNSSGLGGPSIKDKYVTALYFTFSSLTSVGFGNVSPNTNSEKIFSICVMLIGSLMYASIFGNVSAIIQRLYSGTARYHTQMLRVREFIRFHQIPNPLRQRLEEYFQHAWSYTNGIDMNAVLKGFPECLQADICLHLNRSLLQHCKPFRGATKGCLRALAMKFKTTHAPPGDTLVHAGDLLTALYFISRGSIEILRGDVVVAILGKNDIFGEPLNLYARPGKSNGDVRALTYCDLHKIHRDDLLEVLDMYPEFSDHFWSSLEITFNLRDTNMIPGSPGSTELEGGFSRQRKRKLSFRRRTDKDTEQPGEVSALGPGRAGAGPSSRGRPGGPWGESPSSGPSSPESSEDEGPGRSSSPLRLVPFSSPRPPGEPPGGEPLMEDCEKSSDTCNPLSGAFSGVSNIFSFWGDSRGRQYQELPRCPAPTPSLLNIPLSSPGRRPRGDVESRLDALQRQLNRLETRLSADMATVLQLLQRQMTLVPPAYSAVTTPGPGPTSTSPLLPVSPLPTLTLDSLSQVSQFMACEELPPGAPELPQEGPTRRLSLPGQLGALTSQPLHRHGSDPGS
Procedure: Materials and Methods: CHO cells (transformed with adenovirus 5 DNA; Stably transfected with full length hERG cDNA) were cultured in Ham's F-12 supplemented with 10% fetal bovine serum, 100 U/mL penicillin G sodium, 100 μg/mL streptomycin sulfate and 400 μg/mL Zeocin. Before testing, cells in culture dishes were rinsed with Hank's Balanced Salt Solution, detached with accutase.
HEPES-buffered intracellular solution (Charles River proprietary) for whole cell recordings was loaded into the intracellular compartment of the SP384PE. Extracellular buffer (HB-PS) and Cell suspension (in HB-PS) were pipetted into the extracellular compartment of the SP384PE chip. After establishment of a whole-cell configuration, membrane currents were recorded using patch clamp amplifier in the SP384PE system.
Test article (TA) concentrations (eight (8) concentrations of each test article were evaluated) were applied to naïve cells (n=4, where n=replicates/concentration). Each application consisted of addition of 40 μL of 2× concentrated test article solution to the total 80 μL of final volume of the extracellular well of the SP384PE chip. Duration of exposure to each compound concentration was five (5) minutes.
hERG current was measured using stimulus voltage patterns with fixed amplitudes: activation pre-pulse (TP1) to +40 mV for 2 s and test pulse (TP2) to −40 mV for 2 s from a holding potential of −80 mV. hERG current was measured as the outward peak current at TP2 (tail current). The stimulation was repeated with 0.1 Hz frequency during 2 min as baseline and 5 min after TA application.
Data acquisition and analyses were performed using the SP384PE system operation software. The decrease in current amplitude after TA application was used to calculate the percent block relative to control.
Tonic Block effect was calculated as:
[formula] • where ITP2, baseline and ITP2, TA were the outward peak K^+ currents elicited by the TP2 before application and 5 min after application of a test article, respectively.
The data were corrected for run-down:
[formula] • where % VC and % PC were the mean values of the current block with the vehicle and positive controls, respectively.
Concentration-response data were fitted to an equation of the following form:
[formula] • where [Test] was the concentration of test article, IC50 was the concentration of the test article producing half-maximal block, N was the Hill coefficient, % VC was the mean current block at the vehicle control and % Block was the percentage of ion channel current inhibited at each concentration of a test article. Nonlinear least squares fits were solved with the XLfit add-in for Excel (Microsoft, Redmond, WA).
In this study, hERG Ion channel block of IC50 values were determined. […] In brief, CHO cells were cultured in Ham's F-12 supplemented with 10% fetal bovine serum, 100 U/mL penicillin G sodium, 100 μg/mL streptomycin sulfate and 400 μg/mL Zeocin. Before testing, cells in culture dishes were rinsed with Hank's Balanced Salt Solution, detached with accutase. […] Test article (TA) concentrations were applied to naïve cells (n=4, where n=replicates/concentration). Each application consisted of addition of 40 μL of 2× concentrated test article solution to the total 80 μL of final volume of the extracellular well of the SP384PE chip. Duration of exposure to each compound concentration was five (5) minutes. hERG current was measured using stimulus voltage patterns with fixed amplitudes: activation pre-pulse (TP1) to +40 mV for 2 s and test pulse (TP2) to −40 mV for 2 s from a holding potential of −80 mV. hERG current was measured as the outward peak current at TP2 (tail current). The stimulation was repeated with 0.1 Hz frequency during 2 min as baseline and 5 min after TA application. Data acquisition and analyses were performed using the SP384PE system operation software.

[1] = test system: phospho-ERK in A549 (KRAS G12S) cells; test: Cell-based pERK (pERK:tERK) in A549 cells; conditions: for activity at 0.01 µM: Homo sapiens, A549, 2 h, read-out: A549-pERK (10 nM, 2 h); for pERK:tERK (10 nM 2 h A549): Phospho-ERK Screen in A549 (KRAS G12S), head 10 nM 2 h, title 10 μM for 2 hours
Outline: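 Readout was pERK versus tERK by Western blot with IRDye-labelled secondary antibodies, imaged and quantified on a LI-COR Odyssey. Lysates were loaded at 1 mg/mL protein after Bradford estimation.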

PAMPA (pH 7.4) = assay type: in vitro ADME; conditions: PAMPA; pH = 7.4 (Table 14)
Procedure: Each stock solution was diluted to 50 M in pH 7.4 Prisma HT buffer (pION) and 200 μl was added to each well of the donor plate in triplicate. The polyvinylidene fluoride (PVDF, 0.45 μm) filter membrane on the acceptor plate was coated with 5 μl gastrointestinal tract lipid formulation (GIT-0, pION) and to each well of the acceptor plate, 200 μl of acceptor sink buffer (pION) was added. The acceptor filter plate was then carefully placed on top of the donor plate to form a sandwich. The sandwich was incubated at 25° C. for 4 h without stirring. UV-vis spectra of the solutions in the blank, reference, acceptor and donor plates were measured using a microplate reader (Tecan Infinite 200PRO M Nano Plus). Permeability values were calculated using the PAMPA explorer software v.

CYP2C19 = CYP2C19 (Homo sapiens, UniProt P33261); test: in vitro; conditions: pooled liver microsomes, pH 7.4, probe mephenytoin
CYP2C19, sequence (P33261 whole entry): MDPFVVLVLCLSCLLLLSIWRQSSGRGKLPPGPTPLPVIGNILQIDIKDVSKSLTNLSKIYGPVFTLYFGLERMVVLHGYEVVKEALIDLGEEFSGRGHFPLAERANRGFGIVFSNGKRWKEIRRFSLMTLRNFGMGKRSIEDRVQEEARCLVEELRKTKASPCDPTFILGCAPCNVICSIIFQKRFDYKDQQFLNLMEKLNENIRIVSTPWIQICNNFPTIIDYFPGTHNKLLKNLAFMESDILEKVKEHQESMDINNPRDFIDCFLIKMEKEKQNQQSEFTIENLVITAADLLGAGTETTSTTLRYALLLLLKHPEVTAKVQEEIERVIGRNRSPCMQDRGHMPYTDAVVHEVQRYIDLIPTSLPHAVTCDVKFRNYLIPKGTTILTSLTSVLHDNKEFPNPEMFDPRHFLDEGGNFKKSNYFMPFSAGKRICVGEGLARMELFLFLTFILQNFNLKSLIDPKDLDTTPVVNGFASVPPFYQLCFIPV

in vitro = conditions: human
CYP2D6 = CYP2D6 (Homo sapiens, UniProt P10635); test: CYP450 panel inhibition in human liver microsomes, 2D6 (dextromethorphan); conditions: control dose 1 μM, substrate dextromethorphan
CYP2D6, sequence (P10635 whole entry): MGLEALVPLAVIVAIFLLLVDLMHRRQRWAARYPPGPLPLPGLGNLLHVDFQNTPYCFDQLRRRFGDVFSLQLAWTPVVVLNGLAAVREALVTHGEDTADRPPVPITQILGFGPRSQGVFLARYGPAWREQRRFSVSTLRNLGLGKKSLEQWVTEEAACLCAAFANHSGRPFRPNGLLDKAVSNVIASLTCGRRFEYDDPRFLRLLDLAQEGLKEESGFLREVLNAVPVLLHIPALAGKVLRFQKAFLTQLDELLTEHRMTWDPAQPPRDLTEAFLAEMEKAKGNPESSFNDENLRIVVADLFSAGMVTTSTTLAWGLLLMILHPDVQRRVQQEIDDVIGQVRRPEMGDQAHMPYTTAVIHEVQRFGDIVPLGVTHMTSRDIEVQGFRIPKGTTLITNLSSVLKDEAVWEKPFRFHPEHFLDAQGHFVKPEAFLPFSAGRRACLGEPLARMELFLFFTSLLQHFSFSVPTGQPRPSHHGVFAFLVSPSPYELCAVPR

[2] = Caco-2, Mean (B-A/A-B) (Efflux Ratio)
[3] = Caco-2, Mean Papp A − B (10^−6 cm/s)
[4] = Caco-2, Mean Papp A-B (10^-6 cm/s)
[5] = Caco-2, Mean Papp B − A (10^−6 cm/s)
[6] = Caco-2, Mean Papp B-A (10^-6 cm/s)

Work on `O=c1c(O)c(-c2ccc(O)c(O)c2)oc2cc(O)cc(O)c12` [Quercetin, reference compound] yielded an inhibition at 30 min, 10 µM (CYP2C8) of 88.3%.

With `CCS(=O)(=O)Nc1cccc(Cc2c(CN3CCNCC3)c3cc(F)c(OC(=O)N(C)C)cc3oc2=O)c1Cl` [Compound 255, 3-(2-chloro-3-(ethylsulfonamido)benzyl)-6-fluoro-2-oxo-4-(piperazin-1-ylmethyl)-2H-chromen-7-yl dimethylcarbamate] the IC50 (hERG) was 18.1 µM, the activity at 0.01 µM [1] was 37.1% and the “pERK:tERK (10 nM 2 h A549)” value [1] was 37. For the same molecule, the Papp at 4 h, 50 μM (PAMPA (pH 7.4)) was 5 ×10⁻⁶ cm/s.

`COc1ccc2[nH]c([S+]([O-])Cc3ncc(C)c(OC)c3C)nc2c1` (stereo not drawn) [Omeprazole, reference compound] showed an inhibition at 30 min, 10 µM (CYP2C19) of 60.7%.

For `CNC(=C[N+](=O)[O-])NCCSCc1ccc(CN(C)C)o1` [Ranitidine], the “A − B Permeability Ranking” value (Caco-2 cells) was “Lower”, the “A-B Permeability Ranking” value (Caco-2 cells) was “Low” and the efflux ratio at 2 h, 10 μM (in vitro; [2]) was 4.06. The efflux ratio at 2 h, 10 μM (in vitro; Caco-2, Mean Efflux Ratio) was 2.89, the Papp A→B at 2 h, 10 μM (in vitro; [3]) was 0.407 ×10⁻⁶ cm/s and the Papp A→B at 2 h, 10 μM (in vitro; [4]) was 0.347 ×10⁻⁶ cm/s. It also gave a Papp B→A at 2 h, 10 μM (in vitro; [5]) of 1.18 ×10⁻⁶ cm/s and a Papp B→A at 2 h, 10 μM (in vitro; [6]) of 1.41 ×10⁻⁶ cm/s.

For `C=C[C@H]1C[N@@]2CC[C@H]1C[C@@H]2[C@@H](O)c1ccnc2ccc(OC)cc12` [Quinidine, reference compound], the “CYP-2D6 (Dextromethorphan) mean percentage CYP inhibition, control” value (CYP2D6) was 93.1%.

In the case of `CNS(=O)(=O)Nc1cccc(Cc2c(CN3CCNCC3)c3cc(F)c(OC(=O)N(C)C)cc3oc2=O)c1Cl` [Compound 254, 3-(2-chloro-3-((N-methylsulfamoyl)amino)benzyl)-6-fluoro-2-oxo-4-(piperazin-1-ylmethyl)-2H-chromen-7-yl dimethylcarbamate], the IC50 (hERG) is reported as over 30 µM, the activity at 0.01 µM [1] is reported as 26.8% and the “pERK:tERK (10 nM 2 h A549)” value [1] is reported as 27. It also gave a Papp at 4 h, 50 μM (PAMPA (pH 7.4)) of 2 ×10⁻⁶ cm/s.

For `CC(=O)CC(c1ccccc1)c1c(O)c2ccccc2oc1=O` (stereo not drawn) [Warfarin], the “A − B Permeability Ranking” value (Caco-2 cells) was “Higher”, the “A-B Permeability Ranking” value (Caco-2 cells) was “High” and the efflux ratio at 2 h, 10 μM (in vitro; [2]) was 0.726. It also gave an efflux ratio at 2 h, 10 μM (in vitro; Caco-2, Mean Efflux Ratio) of 0.513, a Papp A→B at 2 h, 10 μM (in vitro; [3]) of 40.5 ×10⁻⁶ cm/s and a Papp A→B at 2 h, 10 μM (in vitro; [4]) of 36.6 ×10⁻⁶ cm/s. It also gave a Papp B→A at 2 h, 10 μM (in vitro; [5]) of 20.8 ×10⁻⁶ cm/s and a Papp B→A at 2 h, 10 μM (in vitro; [6]) of 26.6 ×10⁻⁶ cm/s.
